# Measured values as given in patent US10131679B2, “Substituted dihydropyrrolopyrazole compound” (UBE INDUSTRIES, LTD., priority 2014, dated 2018).
# Tests used:
# [1] = tested on: human large intestine cancer cell line (HCT-116); assay: Human large intestine cancer (HCT-116) cell growth inhibition test; type: cell-based; conditions: 72 h, HCT-116, culture for 3 days, sulforhodamine B absorbance
# Procedure: Human Large Intestine Cancer (HCT-116) Cell Growth Inhibition Test
# The measurement of a human large intestine cancer cell growth inhibitory effect was carried out by modifying the method of Simak et al. (Cancer Research, 69, 6208 (2009)).
# A human large intestine cancer cell line (HCT-116) (manufactured by DS Pharma Biomedical Co., Ltd., Cat. No. EC91091005) was cultured in McCoy's 5a (manufactured by GIBCO/Thermo Fisher Scientific, Inc., REF. 16600-082) medium containing 10% FBS (manufactured by GIBCO/Thermo Fisher Scientific, Inc., REF. 10082-147) and 1% penicillin/streptomycin/amphotericin B (manufactured by GIBCO/Thermo Fisher Scientific, Inc., REF. 15240-096) and inoculated at 1.0×10^3 cells/well in a 96-well plate (manufactured by Corning Inc., REF. 353072). After overnight culture in a carbon dioxide incubator, it was replaced with a fresh McCoy's 5a medium containing 10% FBS on the next day, and a test compound dissolved in DMSO (manufactured by Wako Pure Chemical Industries, Ltd., Code No. 043-07216) (final DMSO concentration: 0.1%) was added and left standing in a carbon dioxide incubator. After culturing for 3 days, the absorbance of each well was measured by using In Vitro Toxicology Assay Kit Sulforhodamine B based (manufactured by Sigma-Aldrich Co. LLC., Pcode 1001910706).
# The rate of inhibition of cell growth at each concentration was calculated from the test compound concentration and the absorbance of sulforhodamine B, and the concentration of the test compound necessary for inhibiting 50% of cell growth (IC50 value) was calculated by using EXSUS (version 8.0.0 or version 8.0.1, manufactured by CAC Exicare Corp.).
# CDK7 = molecular target: T1, CDK7 (Homo sapiens, UniProt P50613); assay: CDK7 enzyme inhibition test; type: biochemical; conditions: Ki=IC50/(1+S/Km); 33P bound to MBP, [γ-33P]ATP, 30° C. for 20 minutes; read-out: Ki value of CDK7 inhibitory activity
# T1 construct: purchased Carna Biosciences, Inc. 04-108
# T1 sequence (P50613 whole entry): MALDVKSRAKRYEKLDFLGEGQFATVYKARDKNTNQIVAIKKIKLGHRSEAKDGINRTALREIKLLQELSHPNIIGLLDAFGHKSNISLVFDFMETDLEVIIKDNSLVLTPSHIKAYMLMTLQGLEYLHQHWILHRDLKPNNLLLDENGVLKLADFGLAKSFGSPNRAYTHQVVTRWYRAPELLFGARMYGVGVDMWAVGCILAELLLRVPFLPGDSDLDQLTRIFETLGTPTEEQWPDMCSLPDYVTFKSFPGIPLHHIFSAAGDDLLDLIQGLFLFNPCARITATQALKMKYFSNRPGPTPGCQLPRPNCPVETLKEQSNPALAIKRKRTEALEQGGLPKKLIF
# T1 sequence (P51946 whole entry partner): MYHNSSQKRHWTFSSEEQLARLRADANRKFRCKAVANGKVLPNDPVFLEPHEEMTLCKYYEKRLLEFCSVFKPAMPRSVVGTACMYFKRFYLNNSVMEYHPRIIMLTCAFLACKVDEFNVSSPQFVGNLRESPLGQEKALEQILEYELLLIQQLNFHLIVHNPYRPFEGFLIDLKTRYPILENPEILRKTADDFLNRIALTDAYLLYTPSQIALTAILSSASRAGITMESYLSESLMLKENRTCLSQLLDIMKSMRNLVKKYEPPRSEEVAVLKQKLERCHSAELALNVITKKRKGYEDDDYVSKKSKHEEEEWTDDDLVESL
# T1 sequence (P51948 whole entry partner): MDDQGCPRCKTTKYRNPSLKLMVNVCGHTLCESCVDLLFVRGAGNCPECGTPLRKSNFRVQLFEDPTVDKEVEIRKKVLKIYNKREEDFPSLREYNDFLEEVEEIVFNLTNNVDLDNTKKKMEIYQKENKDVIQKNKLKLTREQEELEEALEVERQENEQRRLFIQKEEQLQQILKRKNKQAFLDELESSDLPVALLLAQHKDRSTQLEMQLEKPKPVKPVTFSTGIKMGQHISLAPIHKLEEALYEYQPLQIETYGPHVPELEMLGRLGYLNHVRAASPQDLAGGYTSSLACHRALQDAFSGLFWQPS
# Procedure: CDK7 Enzyme Inhibition Test
# The preparation of a buffer solution was performed by mixing a N-2-hydroxyethylpiperazine-N′-2-ethanesulfonic acid buffer solution (HEPES buffer solution) (pH 7.4), dithiothreitol (DTT), Triton X-100, and magnesium chloride (MgCl2). A 500 μM [γ-^33P]ATP solution was used by diluting a 10 mM ATP solution and a commercially available [γ-^33P]ATP solution (manufactured by PerkinElmer, Inc., Code No. NEG-302H) with the buffer solution. A CDK7 solution was used by diluting commercially available CDK7 (manufactured by Carna Biosciences, Inc., Catalog No. 04-108) with the buffer solution. A substrate solution was used by diluting myelin basic protein (MBP) with the buffer solution. As for the preparation of a reaction solution, the buffer solution, the 500 μM [γ-^33P]ATP solution, the CDK7 solution, and the substrate solution were mixed at 4° C. to obtain a reaction solution.
# CDK7 enzyme reaction was performed by adding 5 μL of a test compound solution prepared with 10% dimethyl sulfoxide (DMSO)/90% injectable distilled water, and 45 μL of the reaction solution to a 1.5 mL microtube at 4° C. and reacting in the microtube at 30° C. for 20 minutes in a water bath incubator. After the reaction, a 10% aqueous trichloroacetic acid (TCA) solution was added to each microtube while cooled to 4° C., and mixed to terminate the reaction. The resultant was left standing at 4° C. for 10 minutes and then centrifuged in a centrifuge, and the supernatant was discarded. Next, a 2% aqueous TCA solution was added, mixed, and then centrifuged in a centrifuge, and the supernatant was discarded. This washing operation was performed twice. After the washing, precipitates were dissolved in a 1 N aqueous sodium hydroxide (NaOH) solution, and the energy quantity (radioactivity) of the reaction product was measured with a liquid scintillation counter.
# The calculation of the inhibitory activity of the test compound against CDK7 was performed as a test compound concentration inhibiting 50% of the amount of ^33P bound to MBP (IC50 value) by using EXSUS (version 8.0.0 or version 8.0.1, manufactured by CAC Exicare Corp.).
# The calculation of a Ki value was performed according to the following calculation expression. S means the concentration of ATP contained in the reaction solution, and Km means a Michaelis-Menten constant. Ki=IC50/(1+S/Km)
Ki (CDK7),SMILES,IC50 [1]
≤ 50 nM,"CC1(C)c2[nH]nc(NC(=O)C3([Si](C)(C)C)CCC3)c2CN1C(=O)NC(c1ccccc1)C(F)(F)CO (racemic) [IV-362, N-(2,2-Difluoro-3-hydroxy-1-phenylpropyl)-6,6-dimethyl-3-[1-(trimethylsilyl)cyclobutanecarboxamido]-4,6-dihydropyrrolo[3,4-c]pyrazole-5(1H)-carboxamide]",≤ 500 nM
,"CC(C)(CO)C(NC(=O)N1Cc2c(NC(=O)C3([Si](C)(C)C)CCC3)n[nH]c2C1(C)C)c1ccccc1 (single isomer, unassigned; (+)) [IV-672, (+)-N-(3-Hydroxy-2,2-dimethyl-1-phenylpropyl)-6,6-dimethyl-3-[1-(trimethylsilyl)cyclobutanecarboxamido]-4,6-dihydropyrrolo[3,4-c]pyrazole-5(1H)-carboxamide]",≤ 500 nM
≤ 50 nM,"COC(C(=O)N1Cc2c(NC(=O)C3([Si](C)(C)C)CCC3)n[nH]c2C1(C)C)c1cccs1 (single isomer, unassigned; (+)) [IV-1547, (+)-N-{5-[2-Methoxy-2-(thiophen-2-yl)acetyl]-6,6-dimethyl-1,4,5,6-tetrahydropyrrolo[3,4-c]pyrazol-3-yl}-1-(trimethylsilyl)cyclobutanecarboxamide]",
≤ 50 nM,"CC(C)(CO)C(NC(=O)N1Cc2c(NC(=O)C3([Si](C)(C)C)CCC3)n[nH]c2C1(C)C)c1cccc(F)c1 (single isomer, unassigned; (-)) [IV-920, (−)-N-[1-(3-Fluorophenyl)-3-hydroxy-2,2-dimethylpropyl]-6,6-dimethyl-3-[1-(trimethylsilyl)cyclobutanecarboxamido]-4,6-dihydropyrrolo[3,4-c]pyrazole-5(1H)-carboxamide]",
≤ 50 nM,"C[C@@H](Oc1ccccc1)C(=O)N1Cc2c(NC(=O)C3([Si](C)(C)C)CC3)n[nH]c2C1(C)C [III-1140, (R)—N-[6,6-Dimethyl-5-(2-phenoxypropanoyl)-1,4,5,6-tetrahydropyrrolo[3,4-c]pyrazol-3-yl]-1-(trimethylsilyl)cyclopropanecarboxamide]",≤ 500 nM
≤ 50 nM,"CC(C)C(O)CNC(=O)N1Cc2c(NC(=O)C3([Si](C)(C)C)CCC3)n[nH]c2C1(C)C (stereo not shown) [IV-446, N-(2-Hydroxy-3-methylbutyl)-6,6-dimethyl-3-[1-(trimethylsilyl)cyclobutanecarboxamido]-4,6-dihydropyrrolo[3,4-c]pyrazole-5(1H)-carboxamide]",≤ 500 nM
≤ 50 nM,"CC1(C)c2[nH]nc(NC(=O)C3([Si](C)(C)C)CCC3)c2CN1C(=O)NC(CO)c1cccnc1 (stereo not shown) [IV-542, N-[2-Hydroxy-1-(pyridin-3-yl)ethyl]-6,6-dimethyl-3-[1-(trimethylsilyl)cyclobutanecarboxamido]-4,6-dihydropyrrolo[3,4-c]pyrazole-5(1H)-carboxamide]",
,"CC1(C)c2[nH]nc(NC(=O)C3([Si](C)(C)C)CCC3)c2CN1C(=O)CC(CO)c1ccccc1 (stereo not shown) [IV-558, N-[5-(4-Hydroxy-3-phenylbutanoyl)-6,6-dimethyl-1,4,5,6-tetrahydropyrrolo[3,4-c]pyrazol-3-yl]-1-(trimethylsilyl)cyclobutanecarboxamide]",≤ 500 nM
,"CC1(C)c2[nH]nc(NC(=O)C3([Si](C)(C)C)CCC3)c2CN1C(=O)CC(O)c1ccccc1 (stereo not shown) [IV-562, N-[5-(3-Hydroxy-3-phenylpropanoyl)-6,6-dimethyl-1,4,5,6-tetrahydropyrrolo[3,4-c]pyrazol-3-yl]-1-(trimethylsilyl)cyclobutanecarboxamide]",≤ 500 nM
≤ 50 nM,"CC1(C)c2[nH]nc(NC(=O)C3([Si](C)(C)C)CCC3)c2CN1C(=O)[C@H](CO)c1ccccc1 [IV-633, (S)—N-[5-(3-Hydroxy-2-phenylpropanoyl)-6,6-dimethyl-1,4,5,6-tetrahydropyrrolo[3,4-c]pyrazol-3-yl]-1-(trimethylsilyl)cyclobutanecarboxamide]",≤ 500 nM
≤ 50 nM,"COCC(C(=O)N1Cc2c(NC(=O)C3([Si](C)(C)C)CCC3)n[nH]c2C1(C)C)c1ccccc1 (stereo not shown) [IV-634, N-[5-(3-Methoxy-2-phenylpropanoyl)-6,6-dimethyl-1,4,5,6-tetrahydropyrrolo[3,4-c]pyrazol-3-yl]-1-(trimethylsilyl)cyclobutanecarboxamide]",≤ 500 nM
,"CCC(O)(CC)C[C@@H](NC(=O)N1Cc2c(NC(=O)C3([Si](C)(C)C)CCC3)n[nH]c2C1(C)C)c1ccccc1 [IV-759, (R)—N-(3-Ethyl-3-Hydroxy-1-phenylpentyl)-6,6-dimethyl-3-[1-(trimethylsilyl)cyclobutanecarboxamido]-4,6-dihydropyrrolo[3,4-c]pyrazole-5(1H)-carboxamide]",≤ 500 nM
,"CC1(C)c2[nH]nc(NC(=O)C3([Si](C)(C)C)CCC3)c2CN1C(=O)N[C@@H](CO)Cc1ccccc1 [IV-861, (R)—N-(1-Hydroxy-3-phenylpropan-2-yl)-6,6-dimethyl-3-[1-(trimethylsilyl)cyclobutanecarboxamido]-4,6-dihydropyrrolo[3,4-c]pyrazole-5(1H)-carboxamide]",≤ 500 nM
,"CC1(C)c2[nH]nc(NC(=O)C3([Si](C)(C)C)CCC3)c2CN1C(=O)C(Oc1ccccc1)c1ccccc1 (stereo not shown) [IV-1211, N-[6,6-Dimethyl-5-(2-phenoxy-2-phenylacetyl)-1,4,5,6-tetrahydropyrrolo[3,4-c]pyrazol-3-yl]-1-(trimethylsilyl)cyclobutanecarboxamide]",≤ 500 nM
,"COCCC(C(=O)N1Cc2c(NC(=O)C3([Si](C)(C)C)CCC3)n[nH]c2C1(C)C)c1ccccc1 (stereo not shown) [IV-1224, N-[5-(4-Methoxy-2-phenylbutanoyl)-6,6-dimethyl-1,4,5,6-tetrahydropyrrolo[3,4-c]pyrazol-3-yl]-1-(trimethylsilyl)cyclobutanecarboxamide]",≤ 500 nM
,"CC(Oc1ccccc1Cl)C(=O)N1Cc2c(NC(=O)C3([Si](C)(C)C)CCC3)n[nH]c2C1(C)C (stereo not shown) [IV-1266, N-{5-[2-(2-Chlorophenoxy)propanoyl]-6,6-dimethyl-1,4,5,6-tetrahydropyrrolo[3,4-c]pyrazol-3-yl}-1-(trimethylsilyl)cyclobutanecarboxamide]",≤ 500 nM
,"CC(Oc1cccc(Cl)c1)C(=O)N1Cc2c(NC(=O)C3([Si](C)(C)C)CCC3)n[nH]c2C1(C)C (stereo not shown) [IV-1268, N-{5-[2-(3-Chlorophenoxy)propanoyl]-6,6-dimethyl-1,4,5,6-tetrahydropyrrolo[3,4-c]pyrazol-3-yl}-1-(trimethylsilyl)cyclobutanecarboxamide]",≤ 500 nM
≤ 50 nM,"CN(C)CC(Oc1ccccc1)C(=O)N1Cc2c(NC(=O)C3([Si](C)(C)C)CCC3)n[nH]c2C1(C)C (stereo not shown) [IV-1372, N-{5-[3-(Dimethylamino)-2-phenoxypropanoyl]-6,6-dimethyl-1,4,5,6-tetrahydropyrrolo[3,4-c]pyrazol-3-yl}-1-(trimethylsilyl)cyclobutanecarboxamide]",

SMILES,Ki (CDK7),IC50 [1]
"CC1(C)c2[nH]nc(NC(=O)C3([Si](C)(C)C)CC3)c2CN1C(=O)[C@H](CO)c1ccccc1 [III-592, (S)—N-[5-(3-Hydroxy-2-phenylpropanoyl)-6,6-dimethyl-1,4,5,6-tetrahydropyrrolo[3,4-c]pyrazol-3-yl]-1-(trimethylsilyl)cyclopropanecarboxamide]",≤ 50 nM,≤ 500 nM
